System: subjects with mIDH1 advanced AML
Assay: Phase I study: safety and tolerability (TEAE, DLT, MTD, ECG)
Type: in vivo
Experimental: This study was an open-label, nonrandomized, multicenter phase I trial. Subjects were screened at 13 hospital sites in 2 countries (USA and Germany). The study was to consist of dose-escalation followed by dose-expansion. The MTD identified in dose-escalation was to be used in the dose-expansion. If MTD was not reached in dose-escalation, a dose for the expansion would be selected based on available PK, pharmacodynamic, safety, and efficacy data. BAY1436032 was administered twice-daily (BID) in continuous 28-day cycles. In dose-escalation, up to 9 evaluable subjects could be enrolled per cohort, with a minimum of 3 dose-limiting toxicity (DLT)-free evaluable subjects required prior to escalating to the next highest dose. Bayesian dose-DLT modeling was performed to help guide dosing decisions.
DLTs were differentially defined for nonhematopoietic versus hematopoietic toxicities. Nonhematopoietic toxicities of ≥grade 3 occurring during the first cycle of treatment were to be considered DLTs with the following exceptions: (1) Alopecia and nausea controlled by medical management; (2) Tumor lysis syndrome if successfully managed clinically and resolved within 7 days without any end-organ damage; (3) Differentiation syndrome (DS) if successfully managed clinically and resolved within 7 days without any end-organ damage; (4) Asymptomatic ≥grade 3 electrolyte abnormalities not considered clinically significant by the investigator. […] For certain toxicities such as laboratory assessments without a clear clinical correlate, a discussion between the investigator and the sponsor determined whether the adverse event (AE) should be assessed as a DLT.
DLTs identified during the first cycle of treatment were used to guide dose-escalation decisions and to determine the MTD, and if safety issues appeared in subsequent cycles they were also to be considered. Hydroxyurea was permitted during the first cycle if white blood cell (WBC) exceeded 20 × 10^9/L and was also permitted for treatment of DS.
Safety and tolerability were evaluated by analysis of adverse events, physical examinations, vital signs, ECOG performance status, and various laboratory assessments. For safety monitoring, subjects were scheduled for clinic visits every week for the initial three cycles of treatment, after which time visits could be reduced to every-other-week with investigator and sponsor agreement. Cardiac function was assessed with triplicate 12-lead electrocardiograms (ECG) at screening, C1-D1, C1-D2, C1-D15, D1 of every subsequent cycle, and at treatment end. […] AEs are presented by the Medical Dictionary for Regulatory Activities (MedDRA) v21.1.

C[C@H]1C[C@@H](n2c(Nc3ccc(OC(F)(F)F)cc3)nc3cc(CCC(=O)O)ccc32)CC(C)(C)C1 [BAY1436032]
1: TEAE Hypokalaemia Grade 1 (1200 mg BID, n=7) | TEAE Leukocytosis Grade 2 (1200 mg BID, n=7) | TEAE Lung infection Grade 3 (1200 mg BID, n=7) | TEAE Pain in extremity Grade 1 (1200 mg BID, n=7) | TEAE Pneumonia Grade 2 (1200 mg BID, n=7) | TEAE Pneumonia Grade 3 (1200 mg BID, n=7) | TEAE Productive cough Grade 1 (1200 mg BID, n=7) | TEAE Pyrexia Grade 1 (1200 mg BID, n=7) | TEAE Rash Grade 1 (1200 mg BID, n=7) | TEAE Thrombocytopenia Grade 4 (1200 mg BID, n=7) | TEAE Weight decreased Grade 1 (1200 mg BID, n=7) | Related TEAE Differentiation syndrome Grade 2 (1500 mg BID, n=9) | Related TEAE Fatigue Grade 3 (1500 mg BID, n=9) | Related TEAE Hypomagnesaemia Grade 1 (1500 mg BID, n=9) | Related TEAE Nausea Grade 1 (1500 mg BID, n=9) | Related TEAE Sinus tachycardia Grade 1 (1500 mg BID, n=9) | Related TEAE Vomiting Grade 1 (1500 mg BID, n=9) | TEAE Abdominal pain upper Grade 2 (1500 mg BID, n=9) | TEAE Anxiety Grade 2 (1500 mg BID, n=9) | TEAE Arthralgia Grade 1 (1500 mg BID, n=9) | TEAE Arthralgia Grade 2 (1500 mg BID, n=9) | TEAE Contusion Grade 1 (1500 mg BID, n=9) | TEAE Contusion Grade 2 (1500 mg BID, n=9) | TEAE Cough Grade 2 (1500 mg BID, n=9) | TEAE Decreased appetite Grade 2 (1500 mg BID, n=9) | TEAE Decreased appetite Grade 3 (1500 mg BID, n=9) | TEAE Diarrhea Grade 2 (1500 mg BID, n=9) | TEAE Dry skin Grade 1 (1500 mg BID, n=9) | TEAE Dyspnoea Grade 1 (1500 mg BID, n=9) | TEAE Dyspnoea Grade 3 (1500 mg BID, n=9) | TEAE Fatigue Grade 1 (1500 mg BID, n=9) | TEAE Fatigue Grade 2 (1500 mg BID, n=9) | TEAE General physical health deterioration Grade 5 (1500 mg BID, n=9) | TEAE Haematuria Grade 3 (1500 mg BID, n=9) | TEAE Headache Grade 3 (1500 mg BID, n=9) | TEAE Hyperuricaemia Grade 1 (1500 mg BID, n=9) | TEAE Hypokalaemia Grade 2 (1500 mg BID, n=9) | TEAE Hypokalaemia Grade 3 (1500 mg BID, n=9) | TEAE Hyponatraemia Grade 3 (1500 mg BID, n=9) | TEAE Hypophosphataemia Grade 1 (1500 mg BID, n=9) | TEAE Hypophosphataemia Grade 2 (1500 mg BID, n=9) | TEAE Leukocytosis Grade 3 (1500 mg BID, n=9) | TEAE Nausea Grade 1 (1500 mg BID, n=9) | TEAE Nausea Grade 2 (1500 mg BID, n=9) | TEAE Oedema peripheral Grade 3 (1500 mg BID, n=9) | TEAE Pain in extremity Grade 2 (1500 mg BID, n=9) | TEAE Pneumonia Grade 1 (1500 mg BID, n=9) | TEAE Pneumonia Grade 3 (1500 mg BID, n=9) | TEAE Pneumonia fungal Grade 2 (1500 mg BID, n=9) | TEAE Pneumonia fungal Grade 3 (1500 mg BID, n=9) | TEAE Pneumonia fungal Grade 4 (1500 mg BID, n=9) | TEAE Productive cough Grade 2 (1500 mg BID, n=9)
0: TEAE Hypokalaemia Grade 2 (1200 mg BID, n=7) | TEAE Hypokalaemia Grade 3 (1200 mg BID, n=7) | TEAE Hyponatraemia Grade 1 (1200 mg BID, n=7) | TEAE Hyponatraemia Grade 3 (1200 mg BID, n=7) | TEAE Hypophosphataemia Grade 1 (1200 mg BID, n=7) | TEAE Hypophosphataemia Grade 2 (1200 mg BID, n=7) | TEAE Leukocytosis Grade 3 (1200 mg BID, n=7) | TEAE Lung infection Grade 5 (1200 mg BID, n=7) | TEAE Nausea Grade 2 (1200 mg BID, n=7) | TEAE Nausea Grade 3 (1200 mg BID, n=7) | TEAE Oedema peripheral Grade 3 (1200 mg BID, n=7) | TEAE Pain in extremity Grade 2 (1200 mg BID, n=7) | TEAE Pneumonia Grade 1 (1200 mg BID, n=7) | TEAE Pneumonia fungal Grade 2 (1200 mg BID, n=7) | TEAE Pneumonia fungal Grade 3 (1200 mg BID, n=7) | TEAE Pneumonia fungal Grade 4 (1200 mg BID, n=7) | TEAE Productive cough Grade 2 (1200 mg BID, n=7) | TEAE Pyrexia Grade 2 (1200 mg BID, n=7) | TEAE Pyrexia Grade 3 (1200 mg BID, n=7) | TEAE Rash Grade 2 (1200 mg BID, n=7) | TEAE Sepsis Grade 4 (1200 mg BID, n=7) | TEAE Sepsis Grade 5 (1200 mg BID, n=7) | TEAE Sinus tachycardia Grade 1 (1200 mg BID, n=7) | TEAE Vomiting Grade 1 (1200 mg BID, n=7) | TEAE Weight decreased Grade 3 (1200 mg BID, n=7) | Related TEAE Decreased appetite Grade 1 (1500 mg BID, n=9) | Related TEAE Decreased appetite Grade 2 (1500 mg BID, n=9) | Related TEAE Diarrhea Grade 2 (1500 mg BID, n=9) | Related TEAE Differentiation syndrome Grade 3 (1500 mg BID, n=9) | Related TEAE Dyspnea Grade 1 (1500 mg BID, n=9) | Related TEAE Dyspnea Grade 2 (1500 mg BID, n=9) | Related TEAE Fatigue Grade 1 (1500 mg BID, n=9) | Related TEAE Fatigue Grade 2 (1500 mg BID, n=9) | Related TEAE Nausea Grade 2 (1500 mg BID, n=9) | TEAE Acute kidney injury Grade 1 (1500 mg BID, n=9) | TEAE Acute kidney injury Grade 2 (1500 mg BID, n=9) | TEAE Acute kidney injury Grade 3 (1500 mg BID, n=9) | TEAE Anaemia Grade 3 (1500 mg BID, n=9) | TEAE Anaemia Grade 4 (1500 mg BID, n=9) | TEAE Anxiety Grade 1 (1500 mg BID, n=9) | TEAE Constipation Grade 2 (1500 mg BID, n=9) | TEAE Cough Grade 1 (1500 mg BID, n=9) | TEAE Dyspnoea Grade 2 (1500 mg BID, n=9) | TEAE Epistaxis Grade 2 (1500 mg BID, n=9) | TEAE Epistaxis Grade 3 (1500 mg BID, n=9) | TEAE Gingivitis Grade 1 (1500 mg BID, n=9) | TEAE Haematuria Grade 1 (1500 mg BID, n=9) | TEAE Haematuria Grade 2 (1500 mg BID, n=9) | TEAE Headache Grade 1 (1500 mg BID, n=9) | TEAE Headache Grade 2 (1500 mg BID, n=9) | TEAE Hyperkalaemia Grade 1 (1500 mg BID, n=9) | TEAE Hyperkalaemia Grade 4 (1500 mg BID, n=9) | TEAE Hypertension Grade 3 (1500 mg BID, n=9) | TEAE Hyperuricaemia Grade 3 (1500 mg BID, n=9) | TEAE Hypokalaemia Grade 1 (1500 mg BID, n=9) | TEAE Hyponatraemia Grade 1 (1500 mg BID, n=9) | TEAE Leukocytosis Grade 2 (1500 mg BID, n=9) | TEAE Lung infection Grade 3 (1500 mg BID, n=9) | TEAE Lung infection Grade 5 (1500 mg BID, n=9) | TEAE Oedema peripheral Grade 1 (1500 mg BID, n=9) | TEAE Pain in extremity Grade 1 (1500 mg BID, n=9) | TEAE Pneumonia Grade 2 (1500 mg BID, n=9) | TEAE Productive cough Grade 1 (1500 mg BID, n=9) | TEAE Pyrexia Grade 2 (1500 mg BID, n=9) | TEAE Rash Grade 1 (1500 mg BID, n=9) | TEAE Sepsis Grade 4 (1500 mg BID, n=9)
3: TEAE Constipation Grade 1 (1500 mg BID, n=9) | TEAE Pyrexia Grade 3 (1500 mg BID, n=9)
2: TEAE Nausea Grade 1 (1200 mg BID, n=7) | TEAE Oedema peripheral Grade 1 (1200 mg BID, n=7) | TEAE Weight decreased Grade 2 (1200 mg BID, n=7) | TEAE Abdominal pain upper Grade 1 (1500 mg BID, n=9) | TEAE Decreased appetite Grade 1 (1500 mg BID, n=9) | TEAE Diarrhea Grade 1 (1500 mg BID, n=9) | TEAE Epistaxis Grade 1 (1500 mg BID, n=9) | TEAE Fall Grade 1 (1500 mg BID, n=9) | TEAE Fatigue Grade 3 (1500 mg BID, n=9) | TEAE Febrile neutropenia Grade 3 (1500 mg BID, n=9) | TEAE General physical health deterioration Grade 3 (1500 mg BID, n=9) | TEAE Hypertension Grade 2 (1500 mg BID, n=9) | TEAE Nausea Grade 3 (1500 mg BID, n=9) | TEAE Pyrexia Grade 1 (1500 mg BID, n=9) | TEAE Rash Grade 2 (1500 mg BID, n=9)

— paper PMC7584476, “Safety and efficacy of BAY1436032 in IDH1-mutant AML: phase I study results” (Leukemia, 2020)
